Measured values reported in patent US10647699B2, “Substituted 2-oxyimidazolylcarboxamides as pesticides” (Bayer CropScience Aktiengesellschaft, priority 2016, dated 2020).

Tests used:
[1] = log P by HPLC on reversed-phase columns (OECD Guideline 117), neutral range; assay type: physicochemical; details: for chromatographic logP: reversed-phase (C18) HPLC column, read-out: LogP-neutral
Myzus persicae [2] = assay: Myzus persicae spray test on bell pepper plants; assay type: in vivo; details: after 6 days, application rate 20 ppm
Procedure: Myzus persicae-Spray Test
(§1) Solvent: 14 parts by weight of dimethylformamide
(§2) Emulsifier: alkylaryl polyglycol ether
(§3) To produce a suitable preparation of active compound, 1 part by weight of active compound is dissolved using the specified parts by weight of solvent and made up with water containing an emulsifier concentration of 1000 ppm until the desired concentration is attained. To produce further test concentrations, the formulation is diluted with emulsifier-containing water. If the addition of ammonium salts or/and penetrants is required, these are each added in a concentration of 1000 ppm to the formulation solution.
Bell pepper plants (Capsicum annuum) severely infested with the green peach aphid (Myzus persicae) are treated by spraying with the active compound formulation in the desired concentration.
After 6 days, the kill in % is determined. 100% means that all of the aphids have been killed; 0% means that none of the aphids have been killed.

Boophilus microplus = Boophilus microplus injection test; assay type: in vivo; details: 20 μg/animal, assessed after 7 days
Procedure: Boophilus microplus—Injection Test Solvent: dimethyl sulphoxide To produce a suitable preparation of active compound, 10 mg of active compound are mixed with 0.5 ml of solvent and the concentrate is diluted with solvent to the desired concentration. […] The animals are transferred into dishes and kept in a climate-controlled room. Efficacy is assessed after 7 days by laying of fertile eggs. Eggs which are not visibly fertile are stored in a climate-controlled cabinet until the larvae hatch after about 42 days.

Aphis gossypii = Aphis gossypii spray test on cotton plants; assay type: in vivo; details: after 6 days, application rate 20 ppm, cotton plants; for pest or weed control at 20 ppm: Aphis gossypii, 144 h, read-out: efficacy (kill)
Procedure: Aphis gossypii—Spray Test
as §1, §2, §3
Cotton plants (Gossypium hirsutum) which are heavily infested by the cotton aphid (Aphis gossypii) are sprayed with an active compound formulation of the desired concentration.
After 6 days, the kill in % is determined. 100% means that all the aphids have been killed; 0% means that no aphids have been killed.

Myzus persicae [3] = assay: Myzus persicae oral test (MYZUPE O); assay type: in vivo; details: for Emax at 0.8 ppm / Emax at 4 ppm / pest or weed control at 20 ppm: Myzus persicae, po, 120 h; for Emax at 0.8 ppm / Emax at 4 ppm: MYZUPE O, 5 dat, read-out: % efficacy; for pest or weed control at 20 ppm / efficacy: after 5 days, application rate 20 ppm; for pest or weed control at 20 ppm: read-out: efficacy
Procedure: Solvent: 100 parts by weight of acetone
To produce a suitable preparation of active compound, 1 part by weight of active compound is dissolved using the specified parts by weight of solvent and made up with water until the desired concentration is attained.
50 μl of the active compound preparation are transferred into microtitre plates and made up to a final volume of 200 μl with 150 μl of IPL41 insect medium (33%+15% sugar). Subsequently, the plates are sealed with parafilm, which a mixed population of green peach aphids (Myzus persicae) within a second microtitre plate is able to puncture and imbibe the solution through it.
After 5 days, the efficacy in % is determined. 100% means that all the aphids have been killed; 0% means that no aphids have been killed.
Myzus persicae—Oral Test (MYZUPE O)
After 5 or 6 days (dat), the efficacy in % is determined. 100% means that all the aphids have been killed; 0% means that no aphids have been killed.

Myzus persicae [4] = assay: Myzus persicae spray test (MYZUPE), Chinese cabbage leaf discs; assay type: in vivo; details: for Emax at 100 g/ha / pest or weed control at 500 g/ha: Myzus persicae, foliar, 144 h; for Emax at 100 g/ha: MYZUPE, 100 g of ai/ha, 6 dat, read-out: % efficacy; for pest or weed control at 500 g/ha: after 6 days, read-out: efficacy; for pest or weed control at 500 g/ha / efficacy: application rate 500 g/ha; for efficacy: after 5 days
Procedure: Myzus persicae—Spray Test
as §3, with “water.” for “water. If the addition of ammonium salts or/and penetrants is required, these are each added in a concentration of 1000 ppm to the formulation solution.”
Discs of Chinese cabbage leaves (Brassica pekinensis) infested by all stages of the green peach aphid (Myzus persicae) are sprayed with an active compound formulation of the desired concentration.
After 5 or 6 days, the efficacy in % is determined. 100% means that all the aphids have been killed; 0% means that no aphids have been killed.
Myzus persicae—Spray Test (MYZUPE)
Discs of Chinese cabbage leaves (Brassica pekinensis) infested by all stages of the green peach aphid (Myzus persicae) are sprayed with an active compound preparation of the desired concentration.
After the desired period of time, the efficacy in % is determined. 100% means that all the aphids have been killed; 0% means that no aphids have been killed.

Tetranychus urticae = Tetranychus urticae spray test, OP-resistant, bean leaf discs; assay type: in vivo; details: after 6 days, application rate 500 g/ha
Procedure: Tetranychus urticae—Spray Test, OP-Resistant
as §3, with “water.” for “water. If the addition of ammonium salts or/and penetrants is required, these are each added in a concentration of 1000 ppm to the formulation solution.”
Discs of bean leaves (Phaseolus vulgaris) infested with all stages of the greenhouse red spider mite (Tetranychus urticae) are sprayed with an active compound formulation of the desired concentration.
After 6 days, the efficacy in % is determined. 100% means that all the spider mites have been killed; 0% means that no spider mites have been killed.

Row | Compound | efficacy (Tetranychus urticae) [%] | LogP-neutral ([1]; HPLC, neutral range pH 7.8) | efficacy (kill) (Aphis gossypii) [%] | efficacy (Myzus persicae [3]) [%] | LogP-neutral ([1]; pH 7.8) | efficacy (Myzus persicae [4]) [%] | also measured
1 | CC(C)Oc1ncc(C(=O)N(C)c2cccnc2)n1C [Example II-1] | – | – | – | – | – | – | chromatographic logP ([1]; HPLC, neutral range pH 7.8): 1.47; efficacy (kill) (Myzus persicae [2]): 100%; efficacy (no fertile eggs laid) (Boophilus microplus): 100%; pest or weed control at 20 ppm (Aphis gossypii): 100%; Emax at 0.8 ppm (Myzus persicae [3]): 90%; Emax at 4 ppm (Myzus persicae [3]): 100%; pest or weed control at 20 ppm (Myzus persicae [3]): 100%
2 | CN(C(=O)c1cnc(Oc2cc(F)ccc2F)n1C)c1cccnc1 [Example II-14] | 90 | – | – | – | – | – | chromatographic logP ([1]; HPLC, neutral range pH 7.8): 1.87; pest or weed control at 20 ppm (Aphis gossypii): 99%; Emax at 100 g/ha (Myzus persicae [4]): 90%; pest or weed control at 500 g/ha (Myzus persicae [4]): 100%; Emax at 0.8 ppm (Myzus persicae [3]): 90%; pest or weed control at 20 ppm (Myzus persicae [3]): 100%
3 | CN(C(=O)c1cnc(Oc2ccc(F)cc2)n1C)c1cccnc1 [Example II-19] | – | 1.76 | 100 | 100 | – | – | efficacy (kill) (Myzus persicae [2]): 95%
4 | CN(C(=O)c1cnc(OCCC(F)(F)F)n1C)c1cccnc1 [Example II-23] | 100 | – | – | – | – | – | pest or weed control at 20 ppm (Aphis gossypii): 95%; Emax at 100 g/ha (Myzus persicae [4]): 90%; pest or weed control at 500 g/ha (Myzus persicae [4]): 90%; Emax at 0.8 ppm (Myzus persicae [3]): 100%; Emax at 4 ppm (Myzus persicae [3]): 100%; pest or weed control at 20 ppm (Myzus persicae [3]): 100%
5 | C=CCOc1ncc(C(=O)N(C)c2cccnc2)n1C [Example II-37] | 90 | – | 100 | 100 | 1.38 | 100 | –
6 | CN(C(=O)c1cnc(OCCCC#N)n1C)c1cccnc1 [Example II-38] | – | 1.08 | 98 | 100 | – | 90 | –
7 | CN(C(=O)c1cnc(Oc2ccc(F)nc2)n1C)c1cccnc1 [Example II-40] | – | 1.33 | 100 | 100 | – | 100 | efficacy (no fertile eggs laid) (Boophilus microplus): 80%
8 | CN(C(=O)c1cnc(Oc2cncc(Cl)c2)n1C)c1cccnc1 [Example II-41] | – | – | 100 | 100 | 1.57 | 100 | –
9 | CN(C(=O)c1cnc(Oc2cncc(F)c2)n1C)c1cccnc1 [Example II-42] | – | – | 100 | 100 | 1.3 | 90 | –
10 | CN(C(=O)c1cnc(Oc2cncc(C(F)(F)F)c2)n1C)c1cccnc1 [Example II-43] | – | – | 100 | 100 | 1.83 | 90 | –
11 | CN(C(=O)c1cnc(Oc2ccc(Oc3ccc(Cl)nc3)nc2)n1C)c1cccnc1 [Example II-45] | – | – | 99 | 100 | – | – | efficacy (kill) (Myzus persicae [2]): 98%
12 | CCN(C(=O)c1cnc(OC(C)C)n1C)c1cccnc1 [Example II-46] | – | – | 100 | 100 | 1.7 | 100 | –
13 | CCN(C(=O)c1cnc(OCCCC#N)n1C)c1cccnc1 [Example II-47] | – | 1.33 | 100 | 100 | – | 90 | –
14 | CN(C(=O)c1cnc(Oc2ccc(C#N)nc2)n1C)c1cccnc1 [Example II-58] | – | 1.1 | 100 | 100 | – | 90 | –
15 | CN(C(=O)c1cnc(Oc2cccc(Oc3ccccc3)c2)n1C)c1cccnc1 [Example II-81] | 100 | – | – | – | 2.72 | – | –
16 | CCCCSc1cccc(Oc2ncc(C(=O)N(C)c3cccnc3)n2C)c1 [Example II-82] | 100 | – | – | 100 | 3.19 | 100 | –
17 | CN(C(=O)c1cnc(Oc2cc(Cl)cc(C(F)(F)F)c2)n1C)c1cccnc1 [Example II-87] | 90 | – | – | 100 | 2.87 | 90 | –
18 | CN(C(=O)c1cnc(Oc2ccc(F)c(Cl)c2)n1C)c1cccnc1 [Example II-89] | 100 | 2.17 | – | 100 | – | 100 | –
19 | Cn1c(C(=O)N(c2cccnc2)C2CC2)cnc1Oc1cccc(C(F)(F)F)c1 [Example II-94] | 90 | – | – | 100 | 2.59 | – | –
